Data published in patent USRE48461E1, “Modulation of androgen receptor expression” (Ionis Pharmaceuticals, Inc., priority 2012, dated 2021).

How the values were obtained:
Format in all cases: cell-based, human
[1] = system: prostate-specific antigen (PSA) mRNA; assay: Time-course PSA expression in C4-2B cells
Experimental: C4-2B cells were plated at 1,000 cells per well in complete medium. […] ISIS 549148 was included as a negative control. […] After a treatment period of 8 hours, 24 hours, and 48 hours, AR expression was measured with primer probe set hAR-LTS00943. Results are presented in Tables 70-72 as percent expression of AR, relative to non-treated cells.
Expression analysis of prostate-specific antigen (PSA) and TMPRSS2 were also analyzed. Results are presented in Tables 73-75 as percent inhibition of PSA expression and Tables 76-78 as percent inhibition of TMPRSS2 expression, relative to non-treated cells.

AR mRNA = assay: AR RNA expression in LNCaP cells (complete, CSS, CSS+DHT medium); details: for Percent expression of AR in LNCaP cells cultured in CSS + DHT medium: CSS + DHT (1 nM) medium; for Percent expression of AR in LNCaP cells cultured in CSS + DHT medium / Percent expression of AR in LNCaP cells cultured in CSS medium: 48 hrs; for Percent expression of AR in LNCaP cells cultured in complete medium: 48 hours
Experimental: Cells were plated at 1,000 cells per well. […] After an incubation period of 48 hours, RNA levels of AR, PSA and TMPRSS2 were measured.
Cells were plated at 2,000 cells per well and cultured in phenol red-free RPMI supplemented with 5% charcoal stripped serum (Gibco) media for 16 hours. […] After an incubation period of 4 hrs, DHT was added to the medium to a final concentration of 1 nM as indicated. RNAs were collected 48 hrs later and levels of AR, PSA and TMPRSS2 were measured.

full length AR mRNA = assay: Full-length AR RNA in 22RV1 cells (complete, CSS+DHT medium); details: RNAiMax, 48 hrs
Experimental: Cells were plated at 1,000 cells per well. […] After an incubation period of 48 hrs, RNA levels of full length AR, the V7 variant, PSA and TMPRSS2 were measured.
After an incubation period of 48 hrs, RNA levels of full length AR, the V7 variant, PSA and TMPRSS2 were measured.
Cells were plated at 2,000 cells per well and cultured in CSS media for 16 hours. […] After 4 hrs, 1 nM DHT was added. […] After an incubation period of 48 hrs, RNA levels of AR, AR V7 variant, PSA and TMPRSS2 were measured.

LNCaP cells [2] = assay: LNCaP cell proliferation (complete or CSS+DHT medium); details: 5 days; for Proliferation (% untreated control) in LNCaP cells cultured in CSS + DHT medium: CSS + 1 nM DHT medium
Experimental: After a treatment period of 5 days in complete medium or CSS+1 nM DHT medium, the proliferative capacity of the cancer cells was measured with using CellTiter 96® AQueous One Solution or CellTiter-Glo® solution Cell Proliferation kit (Promega), following the manufacturer's instructions. […] Treatment with ISIS oligonucleotides in CSS+DHT medium reduced the proliferative capacity to a greater extent than treatment with MVD-3100. The proliferative capacity of cells cultured in CSS medium without DHT is 17% of untreated control levels.

TMPRSS2 mRNA = assay: TMPRSS2 expression in C4-2B cells (Example 30); details: 48 hrs
Experimental: Cells were plated at 1,000 cells per well. […] ISIS 549148 was included as a negative control. […] After an incubation period of 48 hrs, RNA levels of AR, PSA and TMPRSS2 were measured.
Cells were plated at 2,000 cells per well and cultured in CSS media with 1 nM DHT. […] ISIS 549148 was included as a negative control. […] After an incubation period of 48 hrs, RNA levels of AR, PSA and TMPRSS2 were measured. In the absence of DHT, AR expression in C4-2 cells was 188%, PSA expression was 43% and TMPRSS2 expression was 27% compared to the untreated control.

LNCaP cells [3] = assay: LNCaP cell proliferation, ASO in combination with MDV3100 (Example 20); details: for Proliferation (% untreated control) in LNCaP without MDV-3100: 5 days
Experimental: LNCaP cells were plated at 1,000 cells per well. […] ISIS 549148 was included as a negative control. […] After a treatment period of 5 days, the proliferative capacity of the cancer cells was measured with CellTiter 96® AQueous One or CellTiter-Glo® Solution Cell Proliferation kit (Promega), following the manufacturer's instructions. […]

Sequence: GGCTACTACGCCGTCA (3-10-3 (S)-cEt gapmer, chemistry not fully specified) [ISIS 549148, reference compound]
- Percent inhibition of PSA expression compared to the control group in 8 hours ([1]; 0.04 μM): 1%
- Percent inhibition of PSA expression compared to the control group in 24 hours ([1]; 0.04 μM): 22%
- Percent inhibition of PSA expression compared to the control group in 48 hours ([1]; 0.04 μM): 2%
- Percent inhibition of PSA expression compared to the control group in 8 hours ([1]; 0.2 μM): 8%
- Percent inhibition of PSA expression compared to the control group in 24 hours ([1]; 0.2 μM): 13%
- Percent inhibition of PSA expression compared to the control group in 48 hours ([1]; 0.2 μM): 0%
- Percent inhibition of PSA expression compared to the control group in 8 hours ([1]; 1 μM): 8%
- Percent inhibition of PSA expression compared to the control group in 24 hours ([1]; 1 μM): 16%
- Percent inhibition of PSA expression compared to the control group in 48 hours ([1]; 1 μM): 18%
- Percent inhibition of PSA expression compared to the control group in 8 hours ([1]; 5.0 μM): 0%
- Percent inhibition of PSA expression compared to the control group in 24 hours ([1]; 5.0 μM): 6%
- Percent inhibition of PSA expression compared to the control group in 48 hours ([1]; 5.0 μM): 10%
- Percent expression of AR in LNCaP cells cultured in CSS + DHT medium (AR mRNA; 0.04 μM): 98%
- Percent expression of AR in LNCaP cells cultured in CSS + DHT medium (AR mRNA; 0.2 μM): 102%
- Percent expression of AR in LNCaP cells cultured in CSS + DHT medium (AR mRNA; 1 μM): 96%
- Percent expression of AR in LNCaP cells cultured in CSS medium (AR mRNA; 0.04 μM): 106%
- Percent expression of AR in LNCaP cells cultured in CSS medium (AR mRNA; 0.2 μM): 97%
- Percent expression of AR in LNCaP cells cultured in CSS medium (AR mRNA; 1 μM): 96%
- Percent expression of AR in LNCaP cells cultured in CSS medium (AR mRNA; 5.0 μM): 104%
- Percent expression of AR in LNCaP cells cultured in complete medium (AR mRNA; 0.04 μM): 102%
- Percent expression of AR in LNCaP cells cultured in complete medium (AR mRNA; 1 μM): 109%
- Percent expression of AR in LNCaP cells cultured in complete medium (AR mRNA; 5.0 μM): 109%
- Percent inhibition of full-length AR (full length AR mRNA; CSS + DHT medium, 1.34 nM): 2%
- Percent inhibition of full-length AR (full length AR mRNA; CSS + DHT medium, 4.0 nM): 13%
- Percent inhibition of full-length AR (full length AR mRNA; CSS + DHT medium, 13.4 nM): 22%
- Percent inhibition of full-length AR (full length AR mRNA; complete medium, 1.34 nM): 6%
- Percent inhibition of full-length AR (full length AR mRNA; complete medium, 4.0 nM): 0%
- Percent inhibition of full-length AR (full length AR mRNA; complete medium, 13.4 nM): 11%
- Percent inhibition of full-length AR (full length AR mRNA; complete medium, 40 nM): 17%
- Proliferation (% untreated control) in LNCaP cells cultured in CSS + DHT medium (LNCaP cells [2]; 0.04 μM): 112 % untreated control
- Proliferation (% untreated control) in LNCaP cells cultured in CSS + DHT medium (LNCaP cells [2]; 0.2 μM): 96 % untreated control
- Proliferation (% untreated control) in LNCaP cells cultured in CSS + DHT medium (LNCaP cells [2]; 1 μM): 95 % untreated control
- Proliferation (% untreated control) in LNCaP cells cultured in CSS + DHT medium (LNCaP cells [2]; 5.0 μM): 89 % untreated control
- Proliferation (% untreated control) in LNCaP cells cultured in complete medium (LNCaP cells [2]; 0.04 μM): 101 % untreated control
- Proliferation (% untreated control) in LNCaP cells cultured in complete medium (LNCaP cells [2]; 0.2 μM): 95 % untreated control
- Proliferation (% untreated control) in LNCaP cells cultured in complete medium (LNCaP cells [2]; 1 μM): 94 % untreated control
- Proliferation (% untreated control) in LNCaP cells cultured in complete medium (LNCaP cells [2]; 5.0 μM): 110 % untreated control
- Percent inhibition of TMPRSS2 expression (TMPRSS2 mRNA; CSS + DHT medium, 0.04 μM): 0%
- Percent inhibition of TMPRSS2 expression (TMPRSS2 mRNA; CSS + DHT medium, 0.2 μM): 0%
- Percent inhibition of TMPRSS2 expression (TMPRSS2 mRNA; CSS + DHT medium, 1 μM): 0%
- Percent inhibition of TMPRSS2 expression (TMPRSS2 mRNA; CSS + DHT medium, 5.0 μM): 3%
- Percent inhibition of TMPRSS2 expression (TMPRSS2 mRNA; complete medium, 0.04 μM): 0%
- Percent inhibition of TMPRSS2 expression (TMPRSS2 mRNA; complete medium, 0.2 μM): 2%
- Percent inhibition of TMPRSS2 expression (TMPRSS2 mRNA; complete medium, 1 μM): 4%
- Percent inhibition of TMPRSS2 expression (TMPRSS2 mRNA; complete medium, 5.0 μM): 0%
- Proliferation (% untreated control) in LNCaP with 0.08 μM MDV-3100 (LNCaP cells [3]; ASO dose 0.04 μM + 0.08 μM MDV-3100): 101 % untreated control
- Proliferation (% untreated control) in LNCaP with 0.4 μM MDV-3100 (LNCaP cells [3]; ASO dose 0.04 μM + 0.4 μM MDV-3100): 57 % untreated control
- Proliferation (% untreated control) in LNCaP with 2.0 μM MDV-3100 (LNCaP cells [3]; ASO dose 0.04 μM + 2.0 μM MDV-3100): 42 % untreated control
- Proliferation (% untreated control) in LNCaP with […] MDV-3100 (LNCaP cells [3]; ASO dose 0.04 μM + […] MDV-3100): 86 % untreated control
- Proliferation (% untreated control) in LNCaP without MDV-3100 (LNCaP cells [3]; ASO dose 0.04 μM): 101 % untreated control
- Proliferation (% untreated control) in LNCaP with 0.08 μM MDV-3100 (LNCaP cells [3]; ASO dose 0.08 μM + 0.08 μM MDV-3100): 93 % untreated control
- Proliferation (% untreated control) in LNCaP with 0.4 μM MDV-3100 (LNCaP cells [3]; ASO dose 0.08 μM + 0.4 μM MDV-3100): 65 % untreated control
- Proliferation (% untreated control) in LNCaP with 2.0 μM MDV-3100 (LNCaP cells [3]; ASO dose 0.08 μM + 2.0 μM MDV-3100): 39 % untreated control
- Proliferation (% untreated control) in LNCaP with […] MDV-3100 (LNCaP cells [3]; ASO dose 0.08 μM + […] MDV-3100): 106 % untreated control
- Proliferation (% untreated control) in LNCaP without MDV-3100 (LNCaP cells [3]; ASO dose 0.08 μM): 104 % untreated control
- Proliferation (% untreated control) in LNCaP with 0.08 μM MDV-3100 (LNCaP cells [3]; ASO dose 0.2 μM + 0.08 μM MDV-3100): 89 % untreated control
- Proliferation (% untreated control) in LNCaP with 0.4 μM MDV-3100 (LNCaP cells [3]; ASO dose 0.2 μM + 0.4 μM MDV-3100): 50 % untreated control
- Proliferation (% untreated control) in LNCaP with 2.0 μM MDV-3100 (LNCaP cells [3]; ASO dose 0.2 μM + 2.0 μM MDV-3100): 41 % untreated control
- Proliferation (% untreated control) in LNCaP with […] MDV-3100 (LNCaP cells [3]; ASO dose 0.2 μM + […] MDV-3100): 83 % untreated control
- Proliferation (% untreated control) in LNCaP without MDV-3100 (LNCaP cells [3]; ASO dose 0.2 μM): 91 % untreated control
- Proliferation (% untreated control) in LNCaP with 0.08 μM MDV-3100 (LNCaP cells [3]; ASO dose 1.0 μM + 0.08 μM MDV-3100): 90 % untreated control
- Proliferation (% untreated control) in LNCaP with 0.4 μM MDV-3100 (LNCaP cells [3]; ASO dose 1.0 μM + 0.4 μM MDV-3100): 48 % untreated control
- Proliferation (% untreated control) in LNCaP with 2.0 μM MDV-3100 (LNCaP cells [3]; ASO dose 1.0 μM + 2.0 μM MDV-3100): 32 % untreated control
- Proliferation (% untreated control) in LNCaP with […] MDV-3100 (LNCaP cells [3]; ASO dose 1.0 μM + […] MDV-3100): 59 % untreated control
- Proliferation (% untreated control) in LNCaP without MDV-3100 (LNCaP cells [3]; ASO dose 1.0 μM): 82 % untreated control
